We go through one substance from patent EP4671258A1, “RADIOACTIVE LABEL OF RISEDRONIC ACID DERIVATIVE, AND PRECURSOR COMPOUND THEREOF, AND PREPARATION METHOD THEREFOR AND USE THEREOF” (The Affiliated Hospital of Southwest Medical University, priority 2023, dated 2024).

The subject of the series is tumor-bearing mice. Put plainly: Comparative PET/CT imaging experiment in tumor-bearing mice (Test Example 2). The class given is in vivo, nude mice. Conditions: PET/CT whole-body imaging 2 hours after tail vein injection of about 0.1 ml (1 mCi/ml); MDA-MB-231 bone metastasis model. How it is done: In this test example, the PET/CT imaging experiment of the ^68Ga-labeled compound represented by Formula II-1 of the present disclosure in tumor-bearing mice was disclosed. • (1) Establishment of tumor-bearing mouse model: 12 SPF female nude mice were prepared. After isoflurane anesthesia, the skin around the left knee joint was disinfected. The left hind limb was bent and an insulin needle (29G needle) was used to insert vertically into the femur from the concave point of the femoral head joint fossa. The needle was slowly rotated into the bone marrow cavity and 25µl (containing about 2×10^6 cells) of MDA-MB-231 (human breast cancer cells, from ATCC) cell culture medium was injected. After disinfection, the hole was sealed with sterile bone wax, and the animal was placed on a 37°C hot plate to rewarm. After recovery, it was returned to the cage for continued feeding. • (2) Verification of tumor-bearing mouse model: 4 weeks after inoculation, 12 nude mice were scanned using Micro-CT respectively.
In this test example, a comparative PET/CT imaging experiment of the ^68Ga-labeled compound represented by Formula II-1 of the present disclosure and ^68Ga-DOTA-ibandronic acid in tumor-bearing mice was disclosed. The ^68Ga-DOTA-ibandronic acid was prepared according to the method No.5 in Table 1 in the description of the published Chinese patent application with application number 202111419244.X.
Four successfully modeled tumor-bearing mice were taken, in which two mice were injected with about 0.1 ml of the freshly prepared ^68Ga-labeled compound represented by Formula II-1 (with a concentration of 1 mCi/ml) via the tail vein, and the other two mice were injected with about 0.1 ml of the freshly prepared ^68Ga-DOTA-ibandronic acid (with a concentration of 1 mCi/ml) via the tail vein. PET/CT whole-body imaging was performed 2 hours after injection.
The T/N value was calculated according to the following formula: T/N value = SUVmax of lesion/SUVmax of background tissue [formula] Table 1: Imaging results of tumor-bearing mice

For ^68Ga-DOTA-ibandronic acid, the “Head SUVmax” value is 0.783, the “Head SUVmin” value is reported as 0.230, the “Lesion SUVmax” value was 0.647 and the “Lesion SUVmin” value worked out at 0.139. The “Liver SUVmax” value was found to be 0.067 and the “Liver SUVmin” value is listed as 0.046.
